Results taken from ChEMBL document CHEMBL4715926, “Synthesis of Resolvin E1 and Its Conformationally Restricted Cyclopropane Congeners with Potent Anti-Inflammatory Effect” (2021).
The source made the active and inactive calls. The calls are words filed in the database; no cut-off is given here.

System: Mus musculus
Assay: Antiinflammatory activity in BALB/c mouse assessed as inhibition of heat killed Propionibacterium acnes-induced neutrophil influx at 300 pg, ip administered 12 hrs after Propionibacterium acnes stimulation and measured after 24 hrs by flow cytometry analysis
Assay type: functional

Row | Structure (SMILES) | inhibition | inhibition (INH) [%]
1 | CC[C@@H](O)/C=C/C=C\C[C@@H](O)/C=C/C=C/C=C\[C@@H](O)[C@H]1C[C@H]1C(=O)O | Active | 
2 | CC[C@@H](O)/C=C/C=C\C[C@@H](O)/C=C/C=C/C=C\[C@@H](O)[C@@H]1C[C@@H]1C(=O)O | Active | 
3 | CC[C@@H](O)/C=C/C=C\C[C@@H](O)/C=C/C=C/C=C\[C@@H](O)CCCC(=O)O [RESOLVIN E1] |  | 31
4 | CC[C@@H](O)/C=C/C=C\C[C@@H](O)/C=C/C=C/C=C\[C@@H](O)[C@@H]1C[C@H]1C(=O)O | Active | 
5 | CC[C@@H](O)/C=C/C=C\C[C@@H](O)/C=C/C=C/C=C\[C@@H](O)[C@H]1C[C@@H]1C(=O)O |  | 50
